Earlier results on 2 molecules are cited in patent US12263175B2, “Optimised dosage of diaminophenothiazines in populations” (WisTa Laboratories Ltd., priority 2018, dated 2025).

Series [1] concerns TDP-43 aggregates in SH-SY5Y cells. The conditions noted are these: 0.05 μM MT; cited from earlier work.
In series [2] the test system is huntingtin derivative containing a polyglutamine stretch of 102 residues. The conditions noted are these: zebrafish; tested at 0, 10 and 100 μM; cited from earlier work.
For series [3] the following is noted: phase 2 study, cited from earlier work.

In the case of `CN(C)c1ccc2nc3ccc(=[N+](C)C)cc-3sc2c1` [MT, methylthioninium], the “Reduction of the number of TDP-43 aggregates” value in series [1] is reported as 50%. The “Formation of aggregates of huntingtin derivative (polyglutamine stretch of 102 residues)” value in series [2] is reported as “prevented the formation of such aggregates in zebrafish in a dose-dependent manner”.

Turning to `CN(C)c1ccc2nc3ccc(N(C)C)cc3[s+]c2c1.[Cl-]` [MTC, methylthioninium chloride], in series [3] (218 mg/day), the “Efficacy at higher dose” value is given as “limited efficacy”. The “Minimum safe and effective dose” value in series [3] is listed as 138 mg/day.
